Experimental findings from patent US12344614B2, “Benzodiazepine derivatives as GABA a GAMMA1 PAM” (Hoffmann-La Roche Inc., priority 2021, dated 2025) are described below.

Like-named read-outs stand apart in the source and are kept apart here.

Assay [1] concerns the target h-GABA-A α2β2γ1 receptor (Homo sapiens (Human), UniProt P47869+Q8N1C3). The experiment in a line: Two-electrode voltage clamp electrophysiology in Xenopus oocytes expressing GABAA receptors. Type of assay: cell-based. As to conditions: for Efficacy (GABA) %: % modulation of GABA EC20 = 100*(Fold increase−1), compound at 30-fold Ki α2β2γ1; for Fold increase h-GABA-A α2β2γ1 oocyte @ 30-fold Ki: Xenopus oocytes, GABA EC20, test compound at approx. 30-fold its Ki α2β2γ1.

The target of assay [2] is human GABAA α2β2γ1 receptor (Homo sapiens (Human), UniProt P47869+Q8N1C3). Nature of the assay: Radioligand binding assay, competition for [3H]RO7239181, membranes from HEK293F cells.
In assay [3] the target is human GABAA α1β3γ2 receptor (Homo sapiens (Human), UniProt P14867+P18507). Nature of the assay: Radioligand binding assay, competition for [3H]Flumazenil, HEK293F cells. The conditions noted are these: for γ2/γ1 Selectivity Ratio: Ki α1β3γ2 (nM)/Ki α2β2γ1 (nM); for LogSel: Log[Ki α1β3γ2 (nM)/Ki α2β2γ1 (nM)].
The mark [4] stands for this setting: read-out: Ki h-GABAA α2β2γ1, [3H]RO7239181 20-30 nM, HEK293F membranes, 1 hour at 4° C., mean of two determinations.

One may read the Ki as the dissociation constant of the complex between target and ligand, obtained from inhibition or displacement. Consider `O=c1ccn2c(n1)CN=C(c1cc(O)ccc1F)c1c-2ccc(Cl)c1Cl` [Example 6, 8,9-dichloro-7-(2-fluoro-5-hydroxy-phenyl)-5H-pyrimido[1,2-a][1,4]benzodiazepin-3-one], for which, in assay [1], the “Efficacy (GABA) %” value is reported as 92% and the “Fold increase h-GABA-A α2β2γ1 oocyte @ 30-fold Ki” value was found to be 1.92. Besides, the Ki in assay [2] worked out at 2.18 nM. In assay [2] (setting [4]), the Ki was 2.18 nM. Moreover, in assay [3], the affinity corresponds to a Ki of 46.7 nM, the “γ2/γ1 Selectivity Ratio” value turned out to be 21.4 and the LogSel came out at 1.33.

For `O=c1ccn2c(n1)CN=C(c1c(F)ccc(O)c1F)c1c-2ccc(Cl)c1Cl` [Example 14, 8,9-dichloro-7-(2,6-difluoro-3-hydroxy-phenyl)-5H-pyrimido[1,2-a][1,4]benzodiazepin-3-one], in assay [1], the “Efficacy (GABA) %” value is listed as 68% and the “Fold increase h-GABA-A α2β2γ1 oocyte @ 30-fold Ki” value is on record as 1.68. Besides, the Ki in assay [2] came out at 4.67 nM. Further, the Ki in assay [2] (setting [4]) amounted to 4.67 nM. In addition, in assay [3], the Ki stood at 74.6 nM, the “γ2/γ1 Selectivity Ratio” value worked out at 16.0 and the LogSel was found to be 1.20.

As to `COC1CN(C(=O)c2nc3n(n2)-c2ccc(Cl)c(Cl)c2C(c2cc(O)ccc2F)=NC3)C1` [Example 7, [7,8-dichloro-6-(2-fluoro-5-hydroxy-phenyl)-4H-[1,2,4]triazolo[1,5-a][1,4]benzodiazepin-2-yl]-(3-methoxyazetidin-1-yl)methanone], in assay [1], the “Efficacy (GABA) %” value is recorded as 65% and the “Fold increase h-GABA-A α2β2γ1 oocyte @ 30-fold Ki” value came to 1.65. In addition, the Ki in assay [2] came to 2.22 nM. For the same compound, the Ki in assay [2] (setting [4]) was 2.22 nM. In assay [3], the inhibition constant Ki is 34.6 nM, the “γ2/γ1 Selectivity Ratio” value is reported as 15.6 and the LogSel was determined as 1.19.

Regarding `C[C@@H]1N=C(c2c(F)ccc(O)c2F)c2c(ccc(Cl)c2Cl)-n2ccc(=O)nc21` [Example 18, (5S)-8,9-dichloro-7-(2,6-difluoro-3-hydroxy-phenyl)-5-methyl-5H-pyrimido[1,2-a][1,4]benzodiazepin-3-one], in assay [1], the “Efficacy (GABA) %” value was found to be 57% and the “Fold increase h-GABA-A α2β2γ1 oocyte @ 30-fold Ki” value is on record as 1.57. The affinity in assay [2] corresponds to a Ki of 6.6 nM. Moreover, the Ki in assay [2] (setting [4]) worked out at 6.6 nM. Besides, in assay [3], the Ki was determined as 255 nM, the “γ2/γ1 Selectivity Ratio” value was 38.7 and the LogSel came out at 1.59.
